Several values for one entry are separate records, joined by “and”; a condition that tells them apart may be missing. Identical values can stand only once. Entries after “also recorded” stand apart in the source; their conditions may differ.
Tests used:
OSM = biological target: T1, OSM (Homo sapiens, UniProt P13725); assay: Fluorescence quenching assay of SMI binding to OSM; settings: average of three independent replicates, errors at 95% confidence level, read-out: KD (OSM-SMI dissociation constant)
T1 sequence (P13725 26-252): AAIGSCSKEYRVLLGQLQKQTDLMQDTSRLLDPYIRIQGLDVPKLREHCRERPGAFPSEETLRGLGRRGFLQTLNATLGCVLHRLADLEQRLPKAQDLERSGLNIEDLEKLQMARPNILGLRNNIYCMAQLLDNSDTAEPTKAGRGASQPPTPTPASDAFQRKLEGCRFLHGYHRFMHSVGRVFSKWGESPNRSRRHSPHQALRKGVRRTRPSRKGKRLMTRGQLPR
Protocol: To perform fluorescence quenching assays, 2 mL of 1 μM OSM solution in polymethylmethacrylate cuvettes was prepared by dilution of a concentrated stock solution of recombinant OSM with buffer solution (100 mM sodium chloride, 50 mM sodium phosphate, 50 mM freshly added DTT, pH = 6.6). Cuvettes were titrated with 5 μL increments of a 1 mM small molecule stock solution in DMSO, with a cuvette titrated with an equivalent volume of DMSO as a control. […] In cases where little to no significant quenching was observed, the titration was supplemented with 2.5 μL increments of a 10 mM small molecule stock solution to increase the concentration delivered. The fluorescence intensity measurements were obtained on a Cary Eclipse spectrofluorometer equipped with a Xenon arc lamp. Fluorescence intensities were measured by exciting at 280 nm (4 nm slit width) and recording the emission from 345 to 355 nm with a photomultiplier tube voltage of 700 V, unless otherwise noted. Each titration point was normalized to OSM’s native fluorescence intensity, corrected by adding the decrease in fluorescence intensity caused by dilution with DMSO, and the average value of the three replicates for each point was plotted against concentration of small molecule delivered and fit to a modified Stern–Volmer function as described by Charlier and Plapp. Binding affinity (K D) values were obtained […] from the fitting routine. All curve-fitting analysis was performed in GraphPad Prism 8.0.

[1] = system: OSM-induced pSTAT3 in T47D human breast cancer cells; assay: pSTAT3 ELISA in T47D cells treated with OSM ± SMI; assay type: cell-based; settings: T47D; SMI 10 μM + OSM 10 ng/mL, 30 min; ELISA; relative to +OSM, no-treatment blank subtracted
Protocol: To test the effect of SMIs in vitro, each SMI was incubated with OSM for a period of 1 h at 37 °C, and T47D and MDA-MB-231 human breast cancer cell lines were subsequently treated with OSM (10 ng/mL) and/or SMI-10 (10 μM) analogs for 30 min and measured for pSTAT3 levels via ELISA. The results of these assays are presented graphically in Figure and, for T47D cells, in Table as a percentage of reduction from +OSM alone. For phospho-STAT3 (pSTAT3) ELISAs, T47D MDA-MB-231, and MCF-7 cells were seeded in 12- or 24-well plates at 70–75% confluency and allowed to adhere overnight, after which cells were serum-starved with serum-free RPMI-1640 for 4 h. SMIs (10 μM in DMSO or serially diluted to specified concentrations from a 100 mM stock in DMSO) and human recombinant OSM (10 ng/mL; PeproTech; #300–10T-10UG) were incubated in serum-free RPMI-1640 medium for 1 h. After incubation, the SMI-10 analogs or SMI-10B13 and OSM were added to the serum-starved cells for 30 min. Immediately afterward, the cells were lysed using 1x PathScan Sandwich ELISA Lysis Buffer (Cell Signaling Technology; #7018S), collected, and stored at −20 °C. Lysates were analyzed for pSTAT3 levels using either the PathScan Phospho-STAT3 (Tyr705) Sandwich ELISA Antibody Pair kit (Cell Signaling Technology; #7146) or Human/Mouse Phospho-STAT3 (Y705) DuoSet IC ELISA (R&D Systems; DYC4607B), according to manufacture’s protocol. pSTAT3 expression was measured with absorbance at 450 nm and quantified by comparison relative to OSM-induced pSTAT3 levels. To calculate an IC50 for SMI-10B13, a standard curve was generated as described in the DuoSet IC ELISA datasheet to determine the concentration of pSTAT3.

[2] = system: OSM-mediated signaling (pSTAT3, pAKT, pJNK, pERK) in T47D cells; assay: Immunoblot of OSM-mediated signaling in T47D cells; assay type: cell-based, human; settings: SMI 10 μM, OSM 10 ng/mL, 30 min
Protocol: For immunoblot analysis, T47D breast cancer cells were treated and collected in the same manner as described above for the ELISA preparation. After lysate collection, samples were run on a 10% SDS-PAGE gel and transferred to a nitrocellulose membrane via semidry transfer. Blots were rinsed with DI H2O and allowed to completely dry at room temperature before blocking with LiCor Intercept PBS Blocking Buffer (LiCor, Lincoln, NE; Cat# 927-90001) for 1 h. After blocking, primary antibodies (1:1000) suspended in blocking buffer supplemented with 0.1% Tween were added, shaken at room temperature for 1 h, and stored at 4 °C overnight. Membranes were then washed 6 times for 5 minutes each with 1X PBS supplemented with 0.5% Tween while shaking at room temperature, and secondary antibodies (1:15,000) were applied and incubated for 1 h. Afterward, membranes were washed as previously described above and imaged at 700 nm using the LiCor Odyssey CLx Imaging System. Quantification of immunoblots was performed using the LiCor Image Studio software, normalizing to β-Actin, and calculating relative fold change compared to nontreated samples. Antibodies used included phospho-STAT3 (Y705) (Cell Signaling Technology, Danvers, MA; cat. no. 9145), phospho-AKT (S473) (Cell Signaling Technology, Danvers, MA; cat. no. 4060), phospho-JNK ([…]/[…]) (Cell Signaling Technology, Danvers, MA; cat. no. 4668), phospho-ERK (T202/Y204) (Cell Signaling Technology, Danvers, MA; cat. no. 9101), β-Actin (Cell Signaling Technology; cat. no. 3700), and donkey antirabbit IRDye 800CW (LiCor, Lincoln, NE; Cat# 925-32213).

Row | Structure (SMILES) | Kd (OSM) | Relative pSTAT3 Levels (Table 1, SMI-10A-10J) [1] | Relative pSTAT3 Levels (Table 2, SMI-10B analogs) [1] | Inhibition of OSM-mediated signaling cascades by immunoblot (words) [2] | Inhibition of OSM-mediated signaling cascades by immunoblot (words) ([2]; listed as 10B8)
1 | OCc1cc(-c2ccc3c(c2)OCO3)c(-c2ccc3c(c2)OCO3)o1 [SMI-10H, (4,5-Bis(benzo[d][1,3]dioxol-5-yl)furan-2-yl)methanol] | > 200 µM | 61.1% | – | – | –
2 | O=C(O)CCc1cc(-c2ccc(Cl)c(Cl)c2)c(-c2ccc3c(c2)OCO3)o1 [SMI-10B18, 3-(5-(Benzo[d][1,3]dioxol-5-yl)-4-(3,4-dichlorophenyl)furan-2-yl)propanoic Acid] | 13.5 ± 2.5 µM | – | 35.00% | – | –
3 | O=C(O)/C=C/c1cc(-c2ccc3c(c2)OCO3)c(-c2ccc3c(c2)OCO3)[nH]1 [SMI-10B5, (E)-3-(4,5-Bis(benzo[d][1,3]dioxol-5-yl)-1H-pyrrol-2-yl)acrylic Acid] | 9.2 ± 1.2 µM | – | 19.89% | – | –
4 | O=C(O)c1cc(-c2ccc3c(c2)OCO3)c(-c2ccc3c(c2)OCO3)o1 [SMI-10I, 4,5-Bis(benzo[d][1,3]dioxol-5-yl)furan-2-carboxylic Acid] | 46.2 ± 7.2 µM | 45.9% | – | – | –
5 | O=C(O)/C=C/c1cc(-c2ccccc2)c(-c2ccccc2)o1 [SMI-10B10, (E)-3-(4,5-Diphenylfuran-2-yl)acrylic Acid] | 20.7 ± 1.9 µM | – | 46.10% | – | –
6 | Cn1c(/C=C/C(=O)O)cc(-c2ccc3c(c2)OCO3)c1-c1ccc2c(c1)OCO2 [SMI-10B6, (E)-3-(4,5-Bis(benzo[d][1,3]dioxol-5-yl)-1-methyl-1H-pyrrol-2-yl)acrylic Acid] | 10 ± 1 µM | – | 20.43% | – | –
7 | O=C(NCc1ccccc1)c1cc(-c2ccc3c(c2)OCO3)c(-c2ccc3c(c2)OCO3)o1 [SMI-10J, 4,5-Bis(benzo[d][1,3]dioxol-5-yl)-N-benzylfuran-2-carboxamide] | 30.5 ± 2.1 µM | 8.6% | – | significant reductions, near nontreated levels | –
8 | O=C(O)/C=C/c1ccc(-c2ccc3c(c2)OCO3)o1 [SMI-10B11, (E)-3-(5-(Benzo[d][1,3]dioxol-5-yl)furan-2-yl)acrylic Acid] | 20.1 ± 1.5 µM | – | 42.43% | – | –
9 | COc1ccc(-c2cc(/C=C/C(=O)O)oc2-c2ccc(OC)c(OC)c2)cc1OC [SMI-10B1, (E)-3-(4,5-Bis(3,4-dimethoxyphenyl)furan-2-yl)acrylic Acid] | 18.4 ± 1.3 µM | – | 62.35% | – | –
10 | O=C(O)/C=C/c1cc(-c2ccc3c(c2)OCO3)co1 [SMI-10B12, (E)-3-(4-(Benzo[d][1,3]dioxol-5-yl)furan-2-yl)acrylic Acid] | 66.7 ± 5.8 µM | – | 34.26% | most effective; also recorded: better at inhibiting pSTAT3, pAKT, pJNK, and pERK signaling | –
11 | O=C(O)/C=C/c1cc(-c2ccc3c(c2)OCO3)c(-c2ccccc2)o1 [SMI-10B9, (E)-3-(4-(Benzo[d][1,3]dioxol-5-yl)-5-phenylfuran-2-yl)acrylic Acid] | 18.2 ± 2 µM | – | 30.98% | – | –
12 | O=C(O)CCc1cc(-c2ccc(F)c(F)c2)c(-c2ccc3c(c2)OCO3)o1 [SMI-10B15, 3-(5-(Benzo[d][1,3]dioxol-5-yl)-4-(3,4-difluorophenyl)furan-2-yl)propanoic Acid] | 8.9 ± 2 µM | – | 75.05% | – | –
13 | O=C(O)CCc1cc(-c2ccc3c(c2)OCO3)c(-c2ccc3c(c2)OCO3)o1 [SMI-10B14, 3-(4,5-Bis(benzo[d][1,3]dioxol-5-yl)furan-2-yl)propanoic Acid] | 9.1 ± 1.5 µM | – | 79.65% | most effective; also recorded: better at inhibiting pSTAT3, pAKT, pJNK, and pERK signaling | –
14 | O=C(O)/C=C/c1cc(-c2ccccc2)c(-c2ccc3c(c2)OCO3)o1 [SMI-10B8, (E)-3-(5-(Benzo[d][1,3]dioxol-5-yl)-4-phenylfuran-2-yl)acrylic Acid] | 7.2 ± 0.8 µM | – | 81.66% | most effective | better at inhibiting pSTAT3, pAKT, pJNK, and pERK signaling
15 | O=C(O)/C=C/c1cc(-c2ccc3c(c2)OCO3)c(-c2ccc3c(c2)OCO3)s1 [SMI-10B4, (E)-3-(4,5-Bis(benzo[d][1,3]dioxol-5-yl)thiophen-2-yl)acrylic Acid] | 21.2 ± 1.8 µM | – | 17.98% | – | –
16 | COc1ccc(-c2cc(/C=C/C(=O)O)oc2-c2ccc(OC)c(O)c2)cc1O [SMI-10B2, (E)-3-(4,5-Bis(3-hydroxy-4-methoxyphenyl)furan-2-yl)acrylic Acid] | 17.5 ± 1.2 µM | – | 56.66% | – | –
17 | COC(=O)c1cc(-c2ccc3c(c2)OCO3)c(-c2ccc3c(c2)OCO3)o1 [SMI-10A, Methyl 4,5-Bis(benzo[d][1,3]dioxol-5-yl)furan-2-carboxylate] | 29.6 ± 5.6 µM | 84.7% | – | – | –
18 | O=C(O)/C=C/c1cc(-c2ccc3c(c2)OCCO3)c(-c2ccc3c(c2)OCCO3)o1 [SMI-10B7, (E)-3-(4,5-Bis(2,3-dihydrobenzo[b][1,4]dioxin-6-yl)furan-2-yl)acrylic Acid] | 6.6 µM and 6.64 µM | – | 73.96% | – | –
19 | COc1cc(-c2cc(/C=C/C(=O)O)oc2-c2ccc(O)c(OC)c2)ccc1O [SMI-10B3, (E)-3-(4,5-Bis(4-hydroxy-3-methoxyphenyl)furan-2-yl)acrylic Acid] | 18.5 ± 1.7 µM | – | 67.12% | – | –
20 | COc1ccc(-c2cc(CCC(=O)O)oc2-c2ccc3c(c2)OCO3)cc1 [SMI-10B17, 3-(5-(Benzo[d][1,3]dioxol-5-yl)-4-(4-methoxyphenyl)furan-2-yl)propanoic acid] | 34.5 ± 6.9 µM | – | 86.51% | – | –
21 | O=C(O)CCc1cc(-c2cncnc2)c(-c2ccc3c(c2)OCO3)o1 [SMI-10B16, 3-(5-(Benzo[d][1,3]dioxol-5-yl)-4-(pyrimidin-5-yl)furan-2-yl)propanoic Acid] | 16.5 ± 5.2 µM | – | 41.62% | – | –

From paper PMC12362618, “Development of the First Small-Molecule Inhibitor Targeting Oncostatin M for Treatment of Breast Cancer” (Journal of Medicinal Chemistry, 2025)
